One block for each molecule: values may come before it. Calls of active or inactive are those of the source.
Columns and labels:
Assay type in all cases: functional
[1] = molecular target: Eukaryotic translation initiation factor 4H (Homo sapiens, UniProt Q15056); assay: eIF4H inhibition in translation initiation, SAR follow-up (AID 435011)
[2] = molecular target: Polyadenylate-binding protein 1 (Homo sapiens, UniProt P11940); assay: PABP inhibition in translation initiation, SAR follow-up (AID 435018)
[3] = molecular target: Intestinal-type alkaline phosphatase (Homo sapiens, UniProt P09923); assay: Dose Response confirmation of uHTS hits from a small molecule inhibitors of human intestinal alkaline phosphatase via a luminescent assay. [Related pubchem assays (depositor defined):AID2544, AID2574]
[4] = molecular target: T1, Corticotropin-releasing factor receptor 2/Corticotropin-releasing factor-binding protein (Homo sapiens, UniProt P24387+Q13324); assay: activators of CRF receptor 2 with binding protein – uHTS hits, confirmation (AID 602473); conditions: read-out: EC50_Mean
T1 sequence (Q13324 whole entry): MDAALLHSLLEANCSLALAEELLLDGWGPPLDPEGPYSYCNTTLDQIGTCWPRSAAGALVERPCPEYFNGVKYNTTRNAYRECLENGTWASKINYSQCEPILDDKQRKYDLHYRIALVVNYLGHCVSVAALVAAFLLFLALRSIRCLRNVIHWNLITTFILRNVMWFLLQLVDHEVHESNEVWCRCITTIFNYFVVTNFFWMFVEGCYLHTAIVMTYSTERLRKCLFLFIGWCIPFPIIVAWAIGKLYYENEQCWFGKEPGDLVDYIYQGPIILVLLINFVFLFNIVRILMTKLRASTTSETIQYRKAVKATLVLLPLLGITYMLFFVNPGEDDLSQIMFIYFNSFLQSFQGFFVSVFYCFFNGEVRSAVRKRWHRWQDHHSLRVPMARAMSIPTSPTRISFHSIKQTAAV
T1 sequence (P24387 whole entry): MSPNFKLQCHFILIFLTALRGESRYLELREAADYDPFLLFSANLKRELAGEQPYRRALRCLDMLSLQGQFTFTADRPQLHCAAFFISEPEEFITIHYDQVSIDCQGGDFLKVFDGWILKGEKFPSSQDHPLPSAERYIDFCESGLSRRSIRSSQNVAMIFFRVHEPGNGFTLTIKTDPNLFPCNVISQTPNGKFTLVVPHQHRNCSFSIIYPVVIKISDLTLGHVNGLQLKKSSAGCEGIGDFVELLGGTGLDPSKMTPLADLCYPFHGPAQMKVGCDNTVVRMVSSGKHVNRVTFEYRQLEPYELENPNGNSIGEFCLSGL

[5] = molecular target: T2, Sentrin-specific protease 1 (Homo sapiens, UniProt Q9P0U3); assay: potency of human SENP1 inhibitors, dose response, biochemical, kinetic FRET (AID 651697); conditions: read-out: IC50_Mean
T2 sequence (Q9P0U3 whole entry): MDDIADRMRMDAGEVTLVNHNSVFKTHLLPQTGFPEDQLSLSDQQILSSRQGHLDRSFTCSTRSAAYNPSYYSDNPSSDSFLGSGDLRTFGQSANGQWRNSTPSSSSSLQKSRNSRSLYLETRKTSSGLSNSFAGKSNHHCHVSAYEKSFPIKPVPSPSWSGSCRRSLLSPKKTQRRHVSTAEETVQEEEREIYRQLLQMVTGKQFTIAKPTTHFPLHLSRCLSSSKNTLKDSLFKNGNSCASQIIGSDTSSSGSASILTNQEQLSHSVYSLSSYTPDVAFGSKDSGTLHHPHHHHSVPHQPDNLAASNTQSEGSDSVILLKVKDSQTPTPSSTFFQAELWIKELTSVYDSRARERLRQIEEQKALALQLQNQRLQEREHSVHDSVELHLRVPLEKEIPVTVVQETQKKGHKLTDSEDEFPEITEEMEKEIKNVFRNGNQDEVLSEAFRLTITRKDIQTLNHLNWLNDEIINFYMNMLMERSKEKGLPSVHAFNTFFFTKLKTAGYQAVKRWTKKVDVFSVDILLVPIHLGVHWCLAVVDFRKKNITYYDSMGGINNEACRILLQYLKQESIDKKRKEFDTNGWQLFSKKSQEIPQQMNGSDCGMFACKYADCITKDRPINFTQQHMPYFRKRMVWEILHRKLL

[6] = molecular target: T2, Sentrin-specific protease 1; assay: Dose response confirmation of small molecule inhibitors of the catalytic domain of the SUMO protease, SENP1 in a FRET assay.; conditions: read-out: IC50_Mean
[7] = molecular target: DNA dC->dU-editing enzyme APOBEC-3A (Homo sapiens, UniProt P31941); assay: APOBEC3A DNA deaminase inhibitors, dose response, biochemical (AID 504722)
[8] = molecular target: DNA dC->dU-editing enzyme APOBEC-3G (Homo sapiens, UniProt Q9HC16); assay: Dose Response confirmation of small molecule APOBEC3G DNA Deaminase Inhibitors via a fluorescence-based single-stranded DNA deaminase assay. [Related pubchem assays (depositor defined):AID493012, AID493028]
Sequence of DNA dC->dU-editing enzyme APOBEC-3G (Q9HC16 whole entry): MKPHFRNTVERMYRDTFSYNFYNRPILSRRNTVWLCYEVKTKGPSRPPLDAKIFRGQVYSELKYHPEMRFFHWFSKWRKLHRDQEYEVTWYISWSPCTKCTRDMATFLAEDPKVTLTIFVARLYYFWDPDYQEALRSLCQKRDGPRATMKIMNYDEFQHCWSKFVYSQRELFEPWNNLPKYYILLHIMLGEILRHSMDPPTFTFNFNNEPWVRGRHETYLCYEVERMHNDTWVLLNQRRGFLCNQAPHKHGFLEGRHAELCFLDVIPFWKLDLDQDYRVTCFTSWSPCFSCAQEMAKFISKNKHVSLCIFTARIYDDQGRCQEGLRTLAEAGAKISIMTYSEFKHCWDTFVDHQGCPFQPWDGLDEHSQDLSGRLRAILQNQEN

Sequence of Polyadenylate-binding protein 1 (P11940 whole entry): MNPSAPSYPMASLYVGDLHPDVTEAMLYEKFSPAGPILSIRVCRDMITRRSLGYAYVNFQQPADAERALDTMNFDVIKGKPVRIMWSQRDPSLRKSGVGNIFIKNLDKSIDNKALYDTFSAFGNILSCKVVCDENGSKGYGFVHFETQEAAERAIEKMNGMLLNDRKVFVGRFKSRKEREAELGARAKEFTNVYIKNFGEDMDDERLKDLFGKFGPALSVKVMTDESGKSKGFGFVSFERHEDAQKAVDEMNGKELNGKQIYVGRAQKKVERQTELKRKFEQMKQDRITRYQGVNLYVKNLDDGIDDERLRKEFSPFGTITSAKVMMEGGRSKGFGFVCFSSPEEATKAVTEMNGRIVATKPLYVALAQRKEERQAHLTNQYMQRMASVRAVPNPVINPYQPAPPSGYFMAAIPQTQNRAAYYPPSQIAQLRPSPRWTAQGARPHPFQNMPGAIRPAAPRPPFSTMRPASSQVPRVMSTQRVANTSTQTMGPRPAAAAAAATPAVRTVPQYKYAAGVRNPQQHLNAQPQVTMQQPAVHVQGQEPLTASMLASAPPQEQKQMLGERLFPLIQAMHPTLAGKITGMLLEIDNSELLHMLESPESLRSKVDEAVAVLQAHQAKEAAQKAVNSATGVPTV
Sequence of Intestinal-type alkaline phosphatase (P09923 whole entry): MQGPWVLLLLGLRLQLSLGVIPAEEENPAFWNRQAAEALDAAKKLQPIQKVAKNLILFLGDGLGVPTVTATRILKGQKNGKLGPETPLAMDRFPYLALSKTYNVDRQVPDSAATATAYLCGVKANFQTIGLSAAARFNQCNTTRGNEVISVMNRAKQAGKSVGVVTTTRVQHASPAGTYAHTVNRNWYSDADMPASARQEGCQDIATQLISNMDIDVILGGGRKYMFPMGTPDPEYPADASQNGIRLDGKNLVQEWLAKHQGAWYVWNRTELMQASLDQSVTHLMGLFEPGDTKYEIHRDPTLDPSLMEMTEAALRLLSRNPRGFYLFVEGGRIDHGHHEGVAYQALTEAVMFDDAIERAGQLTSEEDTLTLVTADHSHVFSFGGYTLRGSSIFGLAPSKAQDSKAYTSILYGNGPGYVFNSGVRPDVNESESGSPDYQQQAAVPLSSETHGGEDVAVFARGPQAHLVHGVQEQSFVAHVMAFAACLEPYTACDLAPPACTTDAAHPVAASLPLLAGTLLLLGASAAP
Sequence of DNA dC->dU-editing enzyme APOBEC-3A (P31941 whole entry): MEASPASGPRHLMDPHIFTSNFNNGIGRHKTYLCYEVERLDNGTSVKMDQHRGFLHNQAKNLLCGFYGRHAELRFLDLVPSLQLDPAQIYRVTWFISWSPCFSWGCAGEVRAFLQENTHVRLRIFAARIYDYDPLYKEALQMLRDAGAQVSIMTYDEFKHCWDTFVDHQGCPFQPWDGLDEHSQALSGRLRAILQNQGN

Compound: Cc1cccc(NC(=O)CSc2ccc(-c3ccco3)nn2)c1
IC50 [1]: > 100 µM (inactive)
IC50 [2]: > 100 µM (inactive)

IC50 [3]: > 100 µM (inactive)
EC50 [4]: > 53 µM (inactive)
IC50 [5]: 9.05 µM (active)
IC50 [6]: 10.9 µM (active)
Compound: Cc1ccc2c(c1)nnc1nnc(SCC(=O)O)n12

Compound: Sc1nnc(COc2ccccc2)n1/N=C/c1ccncc1
IC50 [7]: > 100 µM (inactive)
IC50 [8]: 3.12 µM (active)

Compound: COc1cc([N+](=O)[O-])ccc1NC(=O)COC(=O)c1ccc2c(c1)NC(=O)CS2
IC50 [1]: 5.18 µM (active)
IC50 [2]: > 100 µM (inactive)
